Source: patent publication US10711006B2, “Selective Bruton's tyrosine kinase inhibitor and use thereof” (HANGZHOU HERTZ PHARMACEUTICAL CO., LTD., priority 2016, dated 2020)

Assays:
[1] = test system: Mino subcutaneous xenograft tumor; experiment: In-vivo pharmacodynamic study on Mino subcutaneous xenograft tumor models; details: CB17 SCID mice, intragastric, twice a day
Description: In CB17 SCID mice, 0.2 mL of cell suspension containing 5×10^6 Mino cells was subcutaneously inoculated into the right back of each mouse, and when the mean tumor volume reaches approximately 139.94 mm3 (day 26 after inoculation), group administration was started (intragastric administration, twice a day, 14 days in total). Animals were monitored daily for health and mortality, and tumor diameters were measured twice a week using vernier calipers to see if tumor growth could be inhibited, delayed, or cured.

CSK = CSK (Homo sapiens (Human), UniProt P41240); experiment: Kinase selectivity experiment, CSK; format: biochemical; details: read-out: Inhibitory activity against CSK (IC50)
Sequence of CSK (P41240 whole entry, species assumed): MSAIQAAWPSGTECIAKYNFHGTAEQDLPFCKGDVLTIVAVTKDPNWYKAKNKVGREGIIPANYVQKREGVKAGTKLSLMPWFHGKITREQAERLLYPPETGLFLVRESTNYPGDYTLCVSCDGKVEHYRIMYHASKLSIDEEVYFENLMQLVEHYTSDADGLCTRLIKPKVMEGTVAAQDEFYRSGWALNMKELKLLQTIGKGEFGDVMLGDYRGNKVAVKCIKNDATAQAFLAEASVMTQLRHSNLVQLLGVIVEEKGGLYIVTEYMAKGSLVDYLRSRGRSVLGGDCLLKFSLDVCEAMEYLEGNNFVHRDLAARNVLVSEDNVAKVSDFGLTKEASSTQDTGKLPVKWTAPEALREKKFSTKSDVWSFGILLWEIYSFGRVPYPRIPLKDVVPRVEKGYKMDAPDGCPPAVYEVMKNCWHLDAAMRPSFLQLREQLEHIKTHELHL
Description: (§1) A 1× kinase base buffer and a reaction stop buffer for respective kinases in the experiment were prepared as required.
(§2) Preparation of Compounds to be Tested:
(§3) 2) diluting each compound at a 5-fold concentration gradient in a 96-well plate to 6 to 7 concentrations and ensuring that the drug volume in each well was 10 μl; and at the same time adding 100 μl of DMSO to prepare a blank control group and also preparing a negative control group without the enzyme substrate; and
(§4) 3) preparing another 96-well plate, adding 10 μl of each of the above compounds to 90 μl of the 1× kinase base buffer and mixing for 10 minutes to be uniform.
(§5) Preparation of the Plate to be Tested:
(§6) 1) 5 μl of the mixed solution prepared as above in the 96-well plate was taken and transferred to a 384-well plate, with two replicate wells for each compound.
(§7) 1) Preparing a 2.5× kinase solution and adding a corresponding 1× kinase base buffer;
(§8) 2) preparing a 2.5× polypeptide solution and adding FAM-labeled polypeptide and ATP in the 1× kinase base buffer; and
(§9) 3) adding 10 μl of 2.5× kinase solution to a 384-well plate to be tested, placing in a room-temperature environment for 10 minutes, and then adding 10 μl of the 2.5× polypeptide solution, reacting at 28° C. for 1 hour, and then adding 25 μl of a reaction stop buffer.
(§10) The Caliper program reads the plate and uses the data to obtain the IC50 values of the corresponding compounds against kinases.

BTK Kinase = BTK Kinase (Homo sapiens (Human), UniProt Q06187); experiment: In-vitro Btk kinase inhibitory activity assay; format: biochemical
Sequence of BTK Kinase (Q06187 whole entry): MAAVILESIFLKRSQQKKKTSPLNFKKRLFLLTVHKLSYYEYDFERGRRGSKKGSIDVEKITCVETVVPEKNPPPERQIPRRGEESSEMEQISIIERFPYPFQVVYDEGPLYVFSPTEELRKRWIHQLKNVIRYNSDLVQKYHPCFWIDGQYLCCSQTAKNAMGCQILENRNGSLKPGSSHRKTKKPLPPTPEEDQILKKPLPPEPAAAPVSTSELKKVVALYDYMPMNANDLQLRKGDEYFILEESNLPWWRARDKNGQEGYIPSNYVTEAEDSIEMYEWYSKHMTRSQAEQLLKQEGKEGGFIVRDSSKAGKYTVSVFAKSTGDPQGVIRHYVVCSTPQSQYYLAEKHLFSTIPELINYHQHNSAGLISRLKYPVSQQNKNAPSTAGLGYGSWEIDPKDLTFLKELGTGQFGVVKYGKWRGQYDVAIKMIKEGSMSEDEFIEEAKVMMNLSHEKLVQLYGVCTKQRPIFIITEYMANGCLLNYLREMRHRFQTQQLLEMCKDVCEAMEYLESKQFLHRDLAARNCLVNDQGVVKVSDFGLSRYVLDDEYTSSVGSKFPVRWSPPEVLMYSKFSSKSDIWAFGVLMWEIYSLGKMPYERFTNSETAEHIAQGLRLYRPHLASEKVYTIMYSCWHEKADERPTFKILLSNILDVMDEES
Description: In-Vitro Btk Kinase Inhibitory Activity Assay for Compounds of the Present Invention:
10 μL of the 50× drug stock solution was added to a 96-well plate and then 90 μL of a 1× Kinase Buffer was added and the 96-well plate was shaken for 10 minutes on a shaker. From each well of the 96-well plate, 5 μL of the drug solution was taken and then transferred to a 384-well plate which was provided with 2 duplicate wells.
Preparation of a 2.5× Kinase Buffer: an enzyme was added to the 1× kinase base buffer.
Prepare a 2.5× oligopeptide solution: FAM-labeled oligopeptide and ATP were added to the 1× kinase base buffer.
10 μL of the 2.5× Kinase Buffer was added to the 384-well plate loaded with 5 μL of the drug solution and incubation was then carried out for 10 minutes at room temperature. 10 μL of the 2.5× oligopeptide solution was added to the 384-well plate and incubation was then carried out for 1 hour at 28° C. The reaction was stopped by adding 25 μL of a stop buffer. The readings were recorded and the inhibition rate of the compound on the enzyme was calculated. The IC50 of BTK kinase was calculated by fitting.

[2] = test system: human mantle cell lymphoma (MINO); experiment: In-vitro tumor cell proliferation inhibition (CCK-8), MINO; details: 72 h, read-out: Tumor cell proliferation inhibitory activity (IC50, μM) MINO
Description: The in-vitro antitumor activity assay was carried out on the synthesized compound by using different solid tumors and leukemia cell lines:
Cell lines: human lung cancer cell (A549), human mantle cell lymphoma (MINO), diffuse giant B-cell lymphoma (OCI-LY10), and human diffuse large B lymphoma (TMD-8).
Preparation method of the drug: the drug was dissolved in DMSO to make a 10 mM stock solution, and then the stock solution was diluted in a certain ratio to obtain 5 different concentrations (test concentration 100×). In-vitro culture of tumor cells:
The tumor cells A549, MINO, OCI-LY10, and TMD-8 were seeded in a 96-well plate at 4000 cells/200 μL/well and then incubated overnight at 37° C. in a 5% CO2 cell culture incubator. 2 μL of the compound was added to each well to final concentrations of 50 μM, 10 μM, 2 μM, 0.4 μM, and 0.08 μM and then incubated for 72 hours at 37° C. in a 5% CO2 cell incubator, with DMSO (2%) as a control group. […] Wells loaded with the corresponding amount of cell culture fluid the and CCK-8 solution but no cells were considered as blank controls. The absorbance (OD value) was measured at 450 nm using a microplate reader, and the obtained data was used to calculate IC50.

[3] = test system: human diffuse large B lymphoma (TMD-8); experiment: In-vitro tumor cell proliferation inhibition (CCK-8), TMD-8; details: TMD8, 72 h, read-out: Tumor cell proliferation inhibitory activity (IC50, nM) TMD-8
[4] = test system: arthritis induced by anti-collagen antibodies and lipopolysaccharides; experiment: Rheumatoid arthritis model induced by anti-collagen antibodies and lipopolysaccharides; format: in vivo, Balb/c mice; details: for level of IL-1β in serum (in words): 10 mg/kg orally once a day; for level of IL-1β in serum (in words) / inflammatory cell infiltration, synovial hyperplasia, inflammatory granulation tissue formation, necrotic tissue: versus model group; for IL-1β: serum on Day 13, 10 mg/kg orally once a day Day 2 to Day 12; for inflammatory cell infiltration, synovial hyperplasia, inflammatory granulation tissue formation, necrotic tissue: tissue samples after treatment
Description: In Balb/c mice, arthritis was induced by administration of anti-collagen antibodies and lipopolysaccharides (Nandakumar et al., Am. J. Pathol. 2003, 163: 1827-1837).
The specific method was as follows: On Day 0, female Balb/c mice were intravenously injected with anti-type II collagen ChemicomAb mixture in a dose of 100 mg/kg, and on Day 1, lipopolysaccharide was intraperitoneally injected in a dose of 1.25 mg/kg. From Day 2 to Day 12, Compounds 15a, 17a, 24a and 24e were orally administered once a day in a dose of 10 mg/kg. On Day 13 after abdominal anesthesia, […] of blood was taken from the femoral artery and centrifuged at 3000 r/min for 20 minutes, serum was taken to detect IL-1β with a test kit, and related tissue samples were observed.

ITK = ITK (Homo sapiens (Human), UniProt Q08881); experiment: Kinase selectivity experiment, ITK; format: biochemical; details: read-out: Inhibitory activity against ITK (IC50)
Sequence of ITK (Q08881 whole entry, species assumed): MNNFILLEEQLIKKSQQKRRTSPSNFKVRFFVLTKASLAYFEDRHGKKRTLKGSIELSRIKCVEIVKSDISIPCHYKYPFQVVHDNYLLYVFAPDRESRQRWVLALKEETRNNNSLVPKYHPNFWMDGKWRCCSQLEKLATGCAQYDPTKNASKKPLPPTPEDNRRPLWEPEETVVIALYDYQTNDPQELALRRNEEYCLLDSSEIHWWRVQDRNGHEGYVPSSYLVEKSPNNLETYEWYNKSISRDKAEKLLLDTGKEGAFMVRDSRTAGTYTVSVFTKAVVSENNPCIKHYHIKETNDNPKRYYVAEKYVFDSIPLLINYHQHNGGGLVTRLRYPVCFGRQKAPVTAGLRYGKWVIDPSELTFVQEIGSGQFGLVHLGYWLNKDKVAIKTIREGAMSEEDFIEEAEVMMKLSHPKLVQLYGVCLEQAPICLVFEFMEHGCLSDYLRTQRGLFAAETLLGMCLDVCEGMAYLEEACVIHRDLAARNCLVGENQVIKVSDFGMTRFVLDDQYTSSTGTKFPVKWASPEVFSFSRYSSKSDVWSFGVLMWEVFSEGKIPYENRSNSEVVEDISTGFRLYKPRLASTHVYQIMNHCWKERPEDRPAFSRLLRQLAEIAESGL
Description: as §1, §2, §3, §4, §5, §6, §7, §8, §9, §10

Row | Structure (SMILES) | TGI*(14 days) (%) calculated on the basis of tumor volume [1] | TGI**(14 days) (%) calculated on the basis of tumor weight [1] | IC50 (CSK) | IC50 (BTK Kinase) | IC50 [2] | IC50 [3] | level of IL-1β in serum (in words) [4] | IL-1β [4] | inflammatory cell infiltration, synovial hyperplasia, inflammatory granulation tissue formation, necrotic tissue [4] | IC50 (ITK)
1 | C=CC(=O)N1CCC[C@@H](n2nc(-c3ccc(Oc4ccccc4)nc3)c3c(N)ncnc32)C1 [Compound 15a, (R)-1-(3-(4-amino-3-(6-phenoxypyridin-3-yl)-1H-pyrazolo[3,4-d]pyrimidin-1-yl)piperidin-1-yl) prop-2-en-1-one] | 65.01% | 61.00% | > 1000 nM | 3.2 nM | 6.17 µM | 8.16 nM | significantly reduce | 18.72 ± 6.6 ng/L | significantly improved | > 1000 nM
2 | C=CC(=O)N1CC[C@@H](n2nc(-c3ccc(Oc4ccccc4)nc3F)c3c(N)ncnc32)C1 [Compound 24a, (R)-1-(3-(4-amino-3-(2-fluoro-6-phenoxypyridin-3-yl)-1H-pyrazolo[3,4-d]pyrimidin-1-yl)pyrrolidin-1-yl)prop-2-en-1-one] | 73.80% | 65.19% | > 1000 nM | 2.5 nM | 9.46 µM | 16.9 nM | significantly reduce | 19.32 ± 4.2 ng/L | significantly improved | > 1000 nM
